The values that follow come from EP4205737A1, “COMPOSITION FOR PREVENTION, AMELIORATION, OR TREATMENT OF INFLAMMATORY DISEASES OR IMMUNE DISEASES COMPRISING GANCAONIN N AS ACTIVE INGREDIENT” (UNIVERSITY-INDUSTRY COOPERATION GROUP OF KYUNG HEE …, priority 2020, dated 2022).

Series [1] relates to RAW264.7 cells. The experiment in a line: Cell viability analysis (MTT), RAW264.7 cells. The settings on record: Raw264.7 cells, 5, 10, 20, 40 µM, 24 hours, compared to the control group (FIG. 1A). Type of series: cell-based, murine. The protocol: (§1) RAW264.7 murine macrophage cells were purchased from Korean Cell Line Bank (in Seoul, South Korea). A549 human alveolar basal epithelial cells were purchased from American Type Culture Collection (in ATCC, MD, USA). The cells were cultured in DMEM medium (manufactured by Corning Inc., NY, USA) containing 10% FBS (manufactured by Gibco, NY, USA) and 1X antibiotic-antimycotic solution (manufactured by ABAM, Corning Inc., NY, USA) under conditions of 37°C and 5% CO2.
(§2) To evaluate the cytotoxicity of gancaonin N, RAW264.7 cells and A549 cells were dispensed into 96-well plates (1 × 10^4 cells/well) and cultured under conditions of 37°C and 5% CO2. After the culturing, the cells were treated with gancaonin N at concentrations of 5, 10, 20, or 40 µM for 24 hours, and MTT solution (5 mg/mL) was added to each well. After adding 100 µL of dimethyl sulfoxide (DMSO, manufactured by Sigma-Aldrich, St. Louis, MO, USA), the absorbance was measured at 540 nm using a microplate reader (manufactured by Bio-Rad Hercules, CA, USA).
(§3) To examine the cytotoxicity of gancaonin N, the inventors treated Raw264.7 cells and A549 cells with gancaonin N according to the methods of Examples 1 to 4 and then measured cell viability.

Series [2] deals with A549 cells. The experiment in a line: Cell viability analysis (MTT), A549 cells. The conditions noted are these: A549 cells, 5, 10, 20, 40 µM, 24 hours, compared to the control group (FIG. 1B). Type of series: cell-based, human. The method, then:
as §1, §2, §3

Series [3] relates to nitric oxide (NO). Briefly: Nitric oxide (NO) measurement (Griess reagent) in LPS-stimulated RAW264.7 cells. Type of series: cell-based, murine. The settings on record: pretreated 2 hours before LPS 1 µg/mL, 5 to 40 µM, 24 hours, as treatment concentration increased (FIG. 2A). The method, then: Raw264.7 cells and A549 cells were dispensed into 6-well plates (6 × 10^5 cells/well) and cultured under conditions of 37°C and 5% CO2. After the culturing, the cells were treated with 1 µg/mL of lipopolysaccharide (LPS) and with 5 µM to 40 µM of gancaonin N and cultured for 24 hours, and the concentration of NO produced was determined using the cell culture supernatant. The production of NO was measured by reading the absorbance at 540 nm using Griess reagent. Then, a standard curve was drawn using […], and the result value was expressed as […].
To investigate the anti-inflammatory effect of gancaonin N, the inventors pretreated RAW264.7 cells with gancaonin N, 2 hours before stimulation with LPS, and measured the amount of NO production as described in Examples 1 to 5 above to determine change in the amount of NO production according to the concentration of gancaonin N used to treat the cells.
(The Griess reaction detects nitrite, a stable product of nitric oxide.)

The subject of series [4] is TNF-α. Briefly: Western blotting of TNF-α protein in LPS-stimulated A549 cells. The settings on record: LPS 5 µg/mL, 5 to 40 µM (FIG. 4A). Type of series: cell-based, human. The protocol:
(§4) RAW264.7 cells and A549 cells were dispensed into 6-well plates (1 × 10^6 cells/well) and cultured under conditions of 37°C and 5% CO2. After the culturing, the Raw 264.7 cells were treated with 1 µg/mL of lipopolysaccharide (LPS) and the A549 cells were treated with 5 µg/mL of lipopolysaccharide (LPS) and with 5 µM to 40 µM of gancaonin N, and the cells were cultured for 24 hours or 6 hours. Then, the cells were lysed using a lysis buffer. In addition, the left lung extracted from each mouse was lysed using RIPA buffer. SDS-PAGE electrophoresis was performed on the cell and tissue lysates to separate proteins by side, and 5% bovine serum albumin was used for culturing and for blocking antibodies against PGE2 (1:500), IL-1β (1:500), IL-6 (1:500), TNF-α (1:500), i-NOS (1:500), COX-2 (1:1000), P-ERK1/2 (1:1000), ERK1/2 (1:3000), P-p38 (1:1000), p38 (1:3000), NF-κB p65 (1:1000), Lamin B1 (1:1000), and β-actin (1: 5,000).
For the pro-inflammatory cytokines whose mRNA expression inhibition was confirmed as above, the expression level of the protein encoded by the mRNA was further checked. To determine the protein expression level, A549 cells were treated with LPS and gancaonin N as described in Examples 1 to 8, and the protein expression levels were checked.
On the technique in general: In western blotting, separated proteins are transferred to a membrane and probed.

The subject of series [5] is p65. Briefly: MAPK/NF-κB signaling pathway: p65 in LPS-stimulated A549 cells. Type of series: cell-based, human. The protocol:
as §4
A549 cells were dispensed into 6-well plates (1 × 10^4 cells/well) and cultured under conditions of 37°C and 5% CO2. After the culturing, the A549 cells were treated with of 5 ug/mL of lipopolysaccharide (LPS) and with 5 µM to 40 µM of gancaonin N, and the cells were then cultured for 6 hours. […] For fluorescence observation, EVOSR Cell Imaging systems (Thermo Fisher Scientific, Waltham, MA, USA) were used. […]

Take `COc1ccc(-c2coc3cc(O)c(CC=C(C)C)c(O)c3c2=O)c(O)c1` [gancaonin N, 5,7-dihydroxy-3-(2-hydroxy-4-methoxyphenyl)-6-(3-methylbut-2-enyl)chromen-4-one]: the cell viability entry in series [1] and in series [2] was “did not decrease” throughout. In series [3], the “production of NO” value is “significantly decreased”. Also, in series [4], the “protein expression of TNF-α” value is “significantly inhibited”. Also, the “activity/protein expression levels of p65” value in series [5] (5µM to 40 µM 2 hours before LPS treatment (FIG. 5C)) is “significantly reduced”. In addition, in series [5] (LPS, tested 5µM to 40 µM), the “amount of gancaonin N at which the inhibitory effect on the activity/protein expression levels of p65 was most excellent” value turned out to be 40 µM.
